Reference: ChEMBL document CHEMBL3352528, “Ejection of structural zinc leads to inhibition of γ-butyrobetaine hydroxylase” (Bioorg Med Chem Lett, 2014)
Active and inactive are the calls of the source. The rule behind the calls is not given here.

Assays:
[1] = biological target: T1, Gamma-butyrobetaine dioxygenase (Homo sapiens, UniProt O75936); assay: Binding affinity to human BBOX by tryptophan fluorescence quenching binding assay
T1 sequence (O75936 whole entry): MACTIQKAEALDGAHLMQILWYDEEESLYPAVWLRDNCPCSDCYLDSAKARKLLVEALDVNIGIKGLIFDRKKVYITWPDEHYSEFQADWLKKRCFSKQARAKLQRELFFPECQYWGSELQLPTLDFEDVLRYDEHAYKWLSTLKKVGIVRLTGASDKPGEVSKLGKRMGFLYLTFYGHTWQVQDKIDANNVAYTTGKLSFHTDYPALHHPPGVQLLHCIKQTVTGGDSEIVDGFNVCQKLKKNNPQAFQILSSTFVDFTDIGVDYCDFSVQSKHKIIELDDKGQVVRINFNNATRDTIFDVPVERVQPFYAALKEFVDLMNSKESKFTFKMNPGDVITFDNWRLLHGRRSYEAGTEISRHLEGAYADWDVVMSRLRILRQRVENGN

[2] = biological target: T1, Gamma-butyrobetaine dioxygenase; assay: Inhibition of human BBOX pre-incubated for 25 mins using TBS-protected fluorescein probe and Fe (II) (Fe(NH4)2(SO4)2 salt by fluoride release assay
[3] = biological target: T1, Gamma-butyrobetaine dioxygenase; assay: Binding affinity to human BBOX in presence of Fe(II) by tryptophan fluorescence quenching binding assay
[4] = biological target: T1, Gamma-butyrobetaine dioxygenase; assay: Inhibition of human BBOX pre-incubated for 1 min using TBS-protected fluorescein probe and Fe (II) (Fe(NH4)2(SO4)2 salt by fluoride release assay
[5] = biological target: T1, Gamma-butyrobetaine dioxygenase; assay: Inhibition of human BBOX pre-incubated for 20 mins using TBS-protected fluorescein probe and Fe (II) (Fe(NH4)2(SO4)2 salt by fluoride release assay
[6] = biological target: T1, Gamma-butyrobetaine dioxygenase; assay: Inhibition of human BBOX pre-incubated for 15 mins using TBS-protected fluorescein probe and Fe (II) (Fe(NH4)2(SO4)2 salt by fluoride release assay
[7] = biological target: T2, Gamma-butyrobetaine dioxygenase (Homo sapiens) (UniProt O75936); assay: Binding affinity to human BBOX assessed as quenching of intrinsic tryptophan fluorescence at 50 to 200 uM in absence of Fe(II)
T2 sequence (whole entry): T1 sequence (O75936 whole entry)

[8] = biological target: T1, Gamma-butyrobetaine dioxygenase; assay: Inhibition of human BBOX pre-incubated for 10 mins using TBS-protected fluorescein probe and Fe (II) (Fe(NH4)2(SO4)2 salt by fluoride release assay
[9] = biological target: T2, Gamma-butyrobetaine dioxygenase (Homo sapiens); assay: Induction of Zn(II) from human BBOX assessed as zinc release by fluorescence based assay

Compound | Kd [1] [µM] | IC50 [2] [µM] | Kd [3] [µM] | IC50 [4] [µM] | IC50 [5] [µM] | IC50 [6] [µM] | Activity [7] | IC50 [8] [µM] | Activity [9]
CN(C)C(=S)SSC(=S)N(C)C [THIRAM] | 59 | 5.8 | 35 | 56 | 7.9 | 14 | Active | 34 | 
Cl[Se]c1ccccc1 | 9.4 | 2.2 | 7.5 | 5.1 | 2.9 | 3.2 | Active | 4 | 
O=[Se](O)c1ccccc1 | 7.6 | 2.6 | 12 | 35 | 4.7 | 6.3 | Active | 11 | 
c1ccc([Se][Se]c2ccccc2)cc1 | > 200 | 39 | > 200 | 55 | 42 | 49 | Active | 47 | 
Br[Se]c1ccccc1 | 13 | 2.3 | 11 | 7.1 | 3 | 3.4 | Active | 3.4 | 
O=C(O)CNC(=O)c1nc(Cl)c2ccccc2c1O | 122 |  | 13 | 36 | 32 |  | inactive | 33 | inactive
O=c1c2ccccc2[se]n1-c1ccccc1 [EBSELEN] | 3.6 | 0.72 | 4.6 | 0.69 | 0.83 | 0.76 | Active | 0.71 | 
O[Se]c1ccccc1 | > 200 | 17 | > 200 | 54 | 19 | 26 | Active | 35 | 
